Test results published in patent US20180057505A1, “BICYCLIC HETEROARYL COMPOUNDS USEFUL AS INHIBITORS OF THE PAR-2 SIGNALING PATHWAY” (VERTEX PHARMACEUTICALS INCORPORATED, priority 2015, published 2018).

How the values were obtained:
Type in all cases: cell-based
PAR2 (HT-29 cells) [1] = target: T1, PAR2 (HT-29 cells) (Homo sapiens, UniProt P55085); test: Ca FLIPR TETRA assay, ANTAGONIST mode, activator 3.1 U/mL trypsin; settings: HT-29 cells; activator 3.1 U/mL trypsin; Method A: maximal concentration of antagonist 0.1, 1 or 2 μM
T1 construct: host or cells: HT-29
T1 sequence (P55085 26-397): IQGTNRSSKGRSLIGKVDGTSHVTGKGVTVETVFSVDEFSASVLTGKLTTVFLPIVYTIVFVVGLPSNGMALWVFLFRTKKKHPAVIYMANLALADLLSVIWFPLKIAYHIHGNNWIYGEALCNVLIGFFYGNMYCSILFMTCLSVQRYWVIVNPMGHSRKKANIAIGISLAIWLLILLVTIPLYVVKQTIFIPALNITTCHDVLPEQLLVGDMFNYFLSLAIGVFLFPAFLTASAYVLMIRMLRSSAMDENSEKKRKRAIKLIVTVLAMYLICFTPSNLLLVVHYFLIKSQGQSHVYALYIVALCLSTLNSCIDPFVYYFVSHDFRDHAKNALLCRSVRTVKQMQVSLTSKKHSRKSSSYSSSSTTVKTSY
In short: (§1)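 HT-29 cells plated overnight at 37 °C in 1% FBS/McCoy's, loaded with calcium 5 dye (45 min 37 °C, 15 min r.t.), then preincubated with compounds 30 min at r.t. before a fixed activator challenge. Intracellular Ca2+ read by FLIPR Tetra; a first read checks compound-alone activation.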

[2] = test system: Thrombin-stimulated Ca2+ response in HT-29 cells; test: Ca FLIPR TETRA assay, ANTAGONIST mode, activator 1 U/mL Thrombin; settings: HT-29 cells, activator 1 U/mL Thrombin
In short: as §1

PAR2 (HT-29 cells) [3] = target: T1, PAR2 (HT-29 cells); test: Ca FLIPR TETRA assay, ANTAGONIST mode, activator 8 μM SLIGKV; settings: HT-29 cells; activator 8 μM SLIGKV; Method A: maximal concentration of antagonist 0.1, 1 or 2 μM
In short: as §1

[4] = test system: UTP-stimulated Ca2+ response in HT-29 cells; test: Ca FLIPR TETRA assay, ANTAGONIST mode, activator 0.6 μM UTP; settings: HT-29 cells, activator 0.6 μM UTP
In short: as §1

Row | SMILES | IC50 (PAR2 (HT-29 cells) [1]) [nM] | IC50 ([2]; Homo sapiens) [nM] | IC50 (PAR2 (HT-29 cells) [3]) [nM] | IC50 ([4]; Homo sapiens) [nM] | IC50 [2] [nM] | IC50 [4] [nM]
1 | Cc1ccnc(N2CCN(C(=O)c3cc4nc(-c5ccc(Cl)cc5)cc(C(C)(C)C)c4o3)C(C)(C)C2=O)n1 [Example I-340] | 1.7 | > 2000 | 0.9 | > 2000 |  | 
2 | CC(C)(C)c1cc(-c2ccc(Cl)cc2)nc2cc(C(=O)N3CCN(c4ncc(-c5nnn[nH]5)cn4)CC3(C)C)oc12 [Example I-341] | 4.4 | > 2000 | 1.6 | 1700 |  | 
3 | Cn1nccc1S(=O)(=O)N1CCN(C(=O)c2cc3nc(-c4ccc(Cl)c(F)c4)cc(C(C)(C)C)c3o2)C(C)(C)C1=O [Example I-342] | 90 | > 2000 | 94 | > 2000 |  | 
4 | CC(C)[C@H](CC(=O)N1CCN(C(=O)c2cc3nc(-c4ccc(Cl)c(F)c4)cc(C(C)(C)C)c3o2)C(C)(C)C1)C(=O)O [Example I-343] | 0.4 | 1700 | 0.2 | 2100 |  | 
5 | CC(C)(C)c1cc(-c2ccc(Cl)c(F)c2)nc2cc(C(=O)N3CCN(c4cccc(-c5nnn[nH]5)n4)CC3(C)C)oc12 [Example I-344] | 0.2 | > 2000 | 0.1 | > 2000 |  | 
6 | CC1(C)CCC(c2cc(C(C)(C)C)c3oc(C(=O)N4CCN(c5cccc(-c6nnn[nH]6)n5)CC4(C)C)cc3n2)CC1 [Example I-345] | 0.7 | > 2000 | 0.3 | > 2000 |  | 
7 | CC1(C)CCC(c2cc(C(C)(C)C)c3oc(C(=O)N4CCN(c5ncc(-c6nnn[nH]6)cn5)CC4(C)C)cc3n2)CC1 [Example I-346] | 4.1 | 2100 | 1.6 | 1000 |  | 
8 | CN(CC(=O)O)CC(=O)N1CCN(C(=O)c2cc3nc(-c4ccc(Cl)cc4)cc(C(C)(C)C)c3o2)C(C)(C)C1 [Example I-347] | 500 | > 2000 | 290 | > 2000 |  | 
9 | CC(C)(C)c1cc(-c2ccc(Cl)c(F)c2)nc2cc(C(=O)N3CCN(c4ccnnc4)CC3(C)C)oc12 [Example I-348] | 38 | > 2000 | 67 | > 2000 |  | 
10 | CC(C)(C)c1cc(-c2ccc(Cl)cc2)nc2cc(C(=O)N3CCN(c4ccnnc4)CC3(C)C)oc12 [Example I-349] | 75 | > 2000 | 80 | > 2000 |  | 
11 | CC(C)(C)c1cc(-c2ccc(Cl)cc2)nc2cc(C(=O)N3CCN(c4cccc(-c5nnn[nH]5)n4)CC3(C)C)oc12 [Example I-350] | 0.3 | > 2000 | 0.08 | > 2000 |  | 
12 | CC(C)(C)c1cc(-c2ccc(Cl)c(F)c2)nc2cc(C(=O)N3CCN(c4ncccc4C(=O)O)CC3(C)C)oc12 [Example I-351] | 9 | > 2000 | 5.1 | > 2000 |  | 
13 | Cc1ccc(C(=O)O)c(N2CCN(C(=O)c3cc4nc(-c5ccc(Cl)c(F)c5)cc(C(C)(C)C)c4o3)C(C)(C)C2)n1 [Example I-352] | 3.1 | > 2000 | 2.1 | 2000 |  | 
14 | CC(C)(C)c1cc(-c2ccc(Cl)c(F)c2)nc2cc(C(=O)N3CCN(S(C)(=O)=O)C(=O)C3(C)C)oc12 [Example I-353] | 34 | > 2000 | 38 | > 2000 |  | 
15 | CC1(C)CCC(c2cc(C(C)(C)C)c3oc(C(=O)N4CCN(C(=O)CCC(C)(C)C(=O)O)CC4(C)C)cc3n2)CC1 [Example I-354] | 0.4 | > 2000 | 0.3 | > 2000 |  | 
16 | Cc1ccc(N2CCN(C(=O)c3cc4nc(-c5ccc(Cl)c(F)c5)cc(C(C)(C)C)c4o3)C(C)(C)C2=O)nn1 [Example I-355] | 16 | > 2000 | 14 | > 2000 |  | 
17 | Cn1cc(N2CCN(C(=O)c3cc4nc(-c5ccc(Cl)c(F)c5)cc(C(C)(C)C)c4o3)C(C)(C)C2=O)nn1 [Example I-356] | 14.1 | > 2000 | 12 | > 2000 |  | 
18 | CC(C)(C)c1cc(-c2ccc(Cl)c(F)c2)nc2cc(C(=O)N3CCN(c4cccnn4)C(=O)C3(C)C)oc12 [Example I-357] | 10 | > 2000 | 8.3 | > 2000 |  | 
19 | Cc1nccnc1N1CCN(C(=O)c2cc3nc(-c4ccc(Cl)c(F)c4)cc(C(C)(C)C)c3o2)C(C)(C)C1=O [Example I-359] | 43 | > 2000 | 37 | > 2000 |  | 

Row | SMILES | IC50 (PAR2 (HT-29 cells) [1]) [nM] | IC50 ([2]; Homo sapiens) [nM] | IC50 (PAR2 (HT-29 cells) [3]) [nM] | IC50 ([4]; Homo sapiens) [nM] | IC50 [2] [nM] | IC50 [4] [nM]
20 | CC(C)(C)c1cc(-c2ccc(Cl)c(F)c2)nc2cc(C(=O)N3CCN(c4cnccn4)C(=O)C3(C)C)oc12 [Example I-360] | 3.7 | > 2000 | 2.4 | > 2000 |  | 
21 | CC(C)(C)c1cc(-c2ccc(Cl)c(F)c2)nc2cc(C(=O)N3CCN(c4ncccn4)C(=O)C3(C)C)oc12 [Example I-361] | 4.6 | > 2000 | 2.8 | > 2000 |  | 
22 | CC(C)(C)c1cc(-c2ccc(Cl)c(F)c2)nc2cc(C(=O)N3CCN(C(=O)C4CC5(CC(C(=O)O)C5)C4)C(=O)C3(C)C)oc12 (stereo not shown) [Example I-362] | 1 |  | 0.7 |  | > 1100 | > 1100
23 | CC(C)(C)c1cc(-c2ccc(Cl)c(F)c2)nc2cc(C(=O)N3CCc4cnc(CC(=O)O)nc4C3(C)C)oc12 [Example I-363] | 0.9 | > 2000 | 0.6 | > 2000 |  | 
24 | CC1(C)CCC(c2cc(C(C)(C)C)c3oc(C(=O)N4CCN(C(=O)C5CC6(CC(C(=O)O)C6)C5)CC4(C)C)cc3n2)CC1 (stereo not shown) [Example I-364] | 1.2 | > 2000 | 1.2 | 1700 |  | 
25 | CC(C)(C)c1cc(-c2ccc(Cl)c(F)c2)nc2cc(C(=O)N3CCN(c4nc(C(=O)O)ccc4Cl)CC3(C)C)oc12 [Example I-365] | 0.3 | > 2000 | 0.2 | > 2000 |  | 
26 | CC(C)(CCC(=O)N1CCN(C(=O)c2cc3nc(-c4ccc(Cl)cc4)cc(C(C)(C)C)c3o2)C(C)(C)C1)C(=O)O [Example I-366] | 1.1 | > 2000 | 0.8 | > 2000 |  | 
27 | CC(C)(CCC(=O)N1CCN(C(=O)c2cc3nc(-c4ccc(Cl)c(F)c4)cc(C(C)(C)C)c3o2)C(C)(C)C1)C(=O)O [Example I-367] | 0.4 | > 1550 | 0.2 | > 1550 |  | 
28 | CC(C)(C)c1cc(-c2ccc(Cl)cc2)nc2cc(C(=O)N3CCN(c4ncc(C(=O)O)cn4)C(=O)C3(C)C)oc12 [Example I-369] | 19 | > 2000 | 12 | > 2000 |  | 
29 | CC(C)(C)c1cc(-c2ccc(Cl)cc2)nc2cc(C(=O)N3CCN(c4ncc(F)cn4)CC3(C)C)oc12 [Example I-370] | 17 | > 2000 | 17 | > 2000 |  | 
30 | Cc1cnc(N2CCN(C(=O)c3cc4nc(-c5ccc(Cl)c(F)c5)cc(C(C)(C)C)c4o3)C(C)(C)C2=O)nc1 [Example I-371] | 5.2 |  | 5.2 |  | > 2000 | > 2000
31 | CC(C)(C)c1cc(-c2ccc(Cl)c(F)c2)nc2cc(C(=O)N3CCN(C(=O)CC4(C(=O)O)CCC4)CC3(C)C)oc12 [Example I-372] | 0.3 | > 2000 | 0.2 | > 2000 |  | 
32 | CC(C)[C@@H](CC(=O)O)C(=O)N1CCN(C(=O)c2cc3nc(-c4ccc(Cl)c(F)c4)cc(C(C)(C)C)c3o2)C(C)(C)C1 [Example I-373] | 0.8 | > 1100 | 0.6 | > 1100 |  | 
33 | CC(C)[C@H](CC(=O)O)C(=O)N1CCN(C(=O)c2cc3nc(-c4ccc(Cl)c(F)c4)cc(C(C)(C)C)c3o2)C(C)(C)C1 [Example I-374] | 4.1 | > 2000 | 3.6 | > 2000 |  | 
34 | CC(C)(C)c1cc(-c2ccc(Cl)c(F)c2)nc2cc(C(=O)N3CCN(C(=O)[C@@H]4CCC[C@H](C(=O)O)C4)CC3(C)C)oc12 [Example I-375] | 0.7 | > 2000 | 0.3 | > 2000 |  | 
35 | CC(C)(C)c1cc(-c2ccc(Cl)c(F)c2)nc2cc(C(=O)N3CCN(C(=O)CCP(C)(=O)O)CC3(C)C)oc12 [Example I-376] | 290 | > 2000 | 280 | > 2000 |  | 
36 | CC1(C)CCC(c2cc(C(C)(C)C)c3oc(C(=O)N4CCN(C(=O)CC[C@H](N)C(=O)O)CC4(C)C)cc3n2)CC1 [Example I-377] | 470 | > 2000 | 400 | > 2000 |  | 
37 | CC1(C)CCC(c2cc(C(C)(C)C)c3oc(C(=O)N4CCN(C(=O)CCCC(=O)O)CC4(C)C)cc3n2)CC1 [Example I-378] | 3.5 | > 2000 | 1.7 | > 2000 |  | 
